Measurements from US8598160B2, “Cycloalkyl lactame derivatives as inhibitors of 11-beta-hydroxysteroid dehydrogenase 1” (Vitae Pharmaceuticals, Inc., priority 2008, dated 2013).

Molecular target: human 11β-HSD1 (Homo sapiens, UniProt P28845)
Assay: biochemical
Conditions: for inhibition at 0.1111 µM: read-out: Average % inhibition at 111.1 nM; for inhibition at 0.1 µM: read-out: Average % inhibition at 100 nM
Protocol: All reactions were carried out at rt in 96 well clear flexible PET Microbeta plates (PerkinElmer). […] The reaction was stopped by adding 50 μl of the SPA beads suspension containing 10 μM 18β-glycyrrhetinic acid, 5 mg/ml protein A coated YSi SPA beads (GE Healthcare) and 3.3 μg/ml of anti-cortisol antibody (East Coast Biologics) in Superblock buffer (Bio-Rad). The plates were shaken for 120 minutes at rt, and the SPA signal corresponding to [^3H]cortisol was measured on a Microbeta plate reader.

human 11β-HSD1, sequence (P28845 whole entry): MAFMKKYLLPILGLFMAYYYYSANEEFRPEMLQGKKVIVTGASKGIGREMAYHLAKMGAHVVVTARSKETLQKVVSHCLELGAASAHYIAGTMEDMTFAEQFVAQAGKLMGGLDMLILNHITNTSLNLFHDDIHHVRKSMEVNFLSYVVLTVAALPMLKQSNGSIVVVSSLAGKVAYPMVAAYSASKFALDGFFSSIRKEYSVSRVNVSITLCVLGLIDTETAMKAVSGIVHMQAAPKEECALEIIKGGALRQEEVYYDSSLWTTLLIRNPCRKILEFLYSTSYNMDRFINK

Compound	IC50 [nM]	inhibition at 0.1111 µM [%]	inhibition at 0.1 µM [%]
O=C1O[C@@H](c2ccccc2)CCN1c1cccc2ccccc12 [Example 3, (R)-3-(naphthalen-1-yl)-6-phenyl-1,3-oxazinan-2-one]	100 to 1000	-5.9	
O=C1OC(c2ccccc2Cl)CCN1c1cccc(Br)c1 (stereo not drawn) [Example 4, 3-(3-bromophenyl)-6-(2-chlorophenyl)-1,3-oxazinan-2-one]	100 to 1000	22.5	
C[C@@H](c1ccc(Br)cc1)N1CCCC(c2ccccc2)NC1=O (stereo partly drawn) [Example 8, 1-((S)-1-(4-bromophenyl)ethyl)-4-phenyl-1,3-diazepan-2-one]	< 100		100

The remaining lines, values ahead:

IC50 [nM]	inhibition at 0.1111 µM [%]	inhibition at 0.1 µM [%]	Compound
< 100		94.5	C[C@@H](c1ccc(-c2ccc(F)cc2F)cc1)N1CCC(c2ccccc2)CC1=O (mixture of isomers) [Example 5, 1-((1S)-1-(2′,4′-difluorobiphenyl-4-yl)ethyl)-4-phenylpiperidin-2-one]
< 100		89.4	COc1ccc([C@H](C)N2CCC(c3ccc(F)cc3)CC2=O)cc1 (stereo partly drawn) [Example 6, 4(-4-fluorophenyl)-1-((1S)-1-(4-methoxylphenyl)ethyl)piperidin-2-one]
< 100		90.1	C[C@@H](c1ccc(Br)cc1)N1CCC(c2ccc(F)cc2)OC1=O (mixture of isomers) [Example 7, 3-((1S)-1-(4-bromophenyl)ethyl)-6-(4-fluorophenyl)-1,3-oxazinan-2-one]
